Results taken from PMC8694143 (Microbiology Spectrum, 2021).
No end group written: not given here.

System: sheep red blood cells
Experiment: Hemolytic activity assay
Format: cell-based
Settings: peptides at 100 μg/mL, 1 h, relative to the δ-toxin and other STIPs
Experimental: Thirty-five percent defibrinated sheep’s blood (vol/vol) was centrifuged for 5 min at 4,000 rpm to harvest red blood cells. The cells were washed three times with PBS and harvested by centrifugation prior to dilution to 15% (vol/vol) in PBS in order to evaluate peptide-mediated hemolysis. The assay was performed in 96-well microtiter plates using peptides at 100 μg/mL in a 200-μL volume. […] was used as a negative control and Triton X-100 (0.1% vol/vol) was used as a positive control for complete lysis. After 1 h of incubation, the 96-well microtiter plates were centrifuged at 4,500 rpm for 10 min and a 150 μL aliquot of the supernatant from each sample was carefully transferred to a new 96-well plate. The absorbance of the supernatant was then measured at 540 nm using a Varioskan Lux plate reader (Thermo Scientific). The hemolytic activity is reported relative to complete lysis (%) obtained using Triton X-100. Experiments were performed in triplicate, and statistical differences in hemolysis were measured using an unpaired two-tailed Student’s t test to compare the STIPs and deformylated δ-toxin to the formylated δ-toxin.

## TVGGLVKWILKTVKKFA-NH2 [STIP3-29]
  Change of hemolytic activity: increase in hemolysis
